Test results as given in patent EP0255299A2, “Glycopeptide antibiotics” (SMITHKLINE BECKMAN CORPORATION, priority 1986, dated 1988).
In brackets after ≈: the same amount, converted by molar mass. Where two headings read alike, the source gives them in different places. Blank lines part the entries; values can stand above or below the compound they belong to.

Key:
physchem = assay type: physicochemical
Description: The invention includes within its scope pharmaceutical compositions containing at least one of the above-mentioned antibiotic compounds and a pharmaceutically acceptable carrier. The compositions may also contain other active antibacterial agents. The compositions may be made up in any pharmaceutical form appropriate for the route of administration in question. Such compositions are exemplified by solid compositions for oral administration, such as tablets, capsules, pills, powders and granules; liquid compositions for oral administration such as solutions, suspensions, syrups and elixirs; preparations for parenteral administration such as sterile solutions, suspensions or emulsions; and preparations for topical administration such as gels, creams, ointments or salves. […] In 40% prophylene glycol in water (V/V), the solubility of HPB4 free base is greater than about 200 mg/ml. […] The solubility of HPB4·K is about 300 mg/ml. The solubility of HPB4·2HCl is about 600 mg/ml.
The solubility of the potassium salt is about 300 mg/ml in water.

[1] = system: S. faecalis (strain 9, Table 2); assay: mouse protection assay, i.p. infection with S. faecalis, single s.c. dose; assay type: in vivo; conditions: mice infected with 3.17 LD50's, dosed once subcutaneously one hour after infection
Method: (§1) The in vivo activity of the CWI-785 complex and its components and hydrolysis products was confirmed by administering selected CWI-785 antibiotics to mice infected with various gram-positive pathogens. In one representative assay, in which mice infected intraperitoneally with 46.8 LD ₅₀ʹs of S. aureus (strain 1, Tables 1 and 2) were dosed once, subcutaneously one hour after infection, the following ED₅₀ʹs (mg/kg) (the ED₅₀ gives the amount of antibiotic necessary for 50% survival) were observed: CWI-785B: 2.4, CWI-785C: 3.1, CWI-785: 3.8, HPB3: 0.9, vancomycin: 0.7. In a second representative assay carried out as above except that mice were infected with 3.17 LD₅₀ʹs of S. faecalis (strain 9, Table 2), the following ED₅₀ʹs were observed: HPB3 hydrochloride: 1.6, HPB4 hydrochloride: 1.6, vancomycin: 2.2, teicoplanin: 1.3.

pH of aqueous solution = assay type: physicochemical; conditions: 100 mg/ml aqueous solution
[2] = system: S. aureus (strain 1, Tables 1 and 2); assay: mouse protection assay, i.p. infection with S. aureus, single s.c. dose; assay type: in vivo; conditions: mice infected intraperitoneally with 46.8 LD50's, dosed once subcutaneously one hour after infection, 50% survival
Method: as §1

solubility (physchem): about 600 mg/ml
Compound: CNC(C(=O)NC1C(=O)NC(CCSC)C(=O)NC2C(=O)NC3C(=O)NC(C(=O)NC(C(=O)O)c4cc(O)cc(O)c4-c4cc3ccc4O)C(O[C@H]3C[C@@H](N)[C@@H](O)[C@H](C)O3)c3ccc(c(Cl)c3)Oc3cc2cc(c3O)Oc2ccc(cc2)C1O)c1ccc(O)cc1 (some centres unmarked) [HPB4·2HCl]

solubility (physchem; 40% peg-400 in water, organic solvent or mixture, solubility): ~250 mg/mL (≈ 194 mM)
solubility (physchem; 40% propylene glycol in water, organic solvent or mixture, solubility): > 200 mg/mL
Compound: CNC(C(=O)NC1C(=O)NC(CCSC)C(=O)NC2C(=O)NC3C(=O)NC(C(=O)NC(C(=O)O)c4cc(O)cc(O)c4-c4cc3ccc4O)C(O[C@H]3C[C@@H](N)[C@@H](O)[C@H](C)O3)c3ccc(c(Cl)c3)Oc3cc2cc(c3O)Oc2ccc(cc2)C1O)c1ccc(O)cc1 (some centres unmarked) [HPB4]

Compound: CNC(C(=O)NC1C(=O)NC(CCSC)C(=O)NC2C(=O)NC3C(=O)NC(C(=O)NC(C(=O)O)c4cc(O)cc(O)c4-c4cc3ccc4O)C(OC3CC(N)C(O)C(C)O3)c3ccc(c(Cl)c3)Oc3cc2cc(c3O)Oc2ccc(cc2)C1O)c1ccc(O)cc1.Cl (centres unmarked) [HPB4 hydrochloride]
ED₅₀ [1]: 1.6 mg/kg

solubility (physchem; solubility): ~300 mg/mL (≈ 232 mM)
solubility (physchem; water, solubility): ~300 mg/mL (≈ 232 mM)
pH (pH of aqueous solution): 9.29
Compound: CNC(C(=O)NC1C(=O)NC(CCSC)C(=O)NC2C(=O)NC3C(=O)NC(C(=O)NC(C(=O)O)c4cc(O)cc(O)c4-c4cc3ccc4O)C(O[C@H]3C[C@@H](N)[C@@H](O)[C@H](C)O3)c3ccc(c(Cl)c3)Oc3cc2cc(c3O)Oc2ccc(cc2)C1O)c1ccc(O)cc1 (some centres unmarked) [HPB4·K]

Compound: CNC(C(=O)NC1C(=O)NC(CC[S+](C)[O-])C(=O)NC2C(=O)NC3C(=O)NC(C(=O)NC(C(=O)O)c4cc(O)cc(O)c4-c4cc3ccc4O)C(OC3CC(N)C(O)C(C)O3)c3ccc(c(Cl)c3)Oc3cc2cc(c3O)Oc2ccc(cc2)C1O)c1ccc(O)cc1 (centres unmarked) [HPB3]
ED₅₀ [2]: 0.9 mg/kg

Compound: CN[C@H](CC(C)C)C(=O)N[C@H]1C(=O)N[C@@H](CC(N)=O)C(=O)N[C@H]2C(=O)N[C@H]3C(=O)N[C@H](C(=O)N[C@H](C(=O)O)c4cc(O)cc(O)c4-c4cc3ccc4O)[C@H](O)c3ccc(c(Cl)c3)Oc3cc2cc(c3O[C@@H]2O[C@H](CO)[C@@H](O)[C@H](O)[C@H]2O[C@H]2C[C@](C)(N)[C@H](O)[C@H](C)O2)Oc2ccc(cc2Cl)[C@H]1O [vancomycin, reference compound]
ED50 ([1]; Enterococcus faecalis, sc, 1 h, read-out: ED₅₀): 2.2 mg/kg
ED50 ([2]; Staphylococcus aureus, sc, 1 h, read-out: ED₅₀): 0.7 mg/kg

Compound: CNC(C(=O)NC1C(=O)NC(CC[S+](C)[O-])C(=O)NC2C(=O)NC3C(=O)NC(C(=O)NC(C(=O)O)c4cc(O)cc(O)c4-c4cc3ccc4O)C(OC3CC(N)C(O)C(C)O3)c3ccc(c(Cl)c3)Oc3cc2cc(c3O)Oc2ccc(cc2)C1O)c1ccc(O)cc1.Cl (centres unmarked) [HPB3 hydrochloride]
ED₅₀ [1]: 1.6 mg/kg
